Results taken from patent publication US11077127B2, “Adjuvant containing baicalin, particularly from a Scutellaria baicalensis extract, and animal feed containing such an adjuvant” (DELTAVIT, priority 2014, dated 2021).

Experiments:
[1] = tested on: Isabrown laying hens; test: Test 3: feed intake and egg laying of laying hens subject to thermal stress; assay type: in vivo, hen
Procedure: Test 3: Study of the Effect of the Administration of a Feed Comprising the Adjuvant with the Scutellaria baicalensis Extract on a Solid Vehicle on the Feed Intake of Laying Hens Subject to Thermal Stress 72 Isabrown laying hens thirty weeks old at the beginning of the test were divided into three groups of twelve cages each containing two hens. The test was carried out until the hens were 38 weeks old. Group 1 received the control feed. Group 2, also called the OTC group, received the control feed supplemented with an antibiotic, 400 ppm of oxytetracycline. Group 3, also called the SCU group, received the control feed supplemented with an extract from the root of Scutellaria baicalensis providing 6 mg of baicalin/kg of feed. After three weeks of distribution of the experimental feed, the hens were subject to a variation in temperature. The temperature of the environment increased from 22° C. (thermal comfort) to 35° C. for 5 days. Food intake, number of eggs laid and average weight of the eggs were recorded every week and every day during the week of the high temperature as well as during the following week. The test was divided into three phases: pre-heat increase phase, thermal stress phase and post-high temperature stress phase.

[2] = tested on: piglets; test: Test 5: state of health and resistance to disease of piglets subject to a stress; assay type: in vivo, pig; settings: 100 ppm in the feed
Description: Test 5: Study of the Effect of the Administration of a Feed Comprising the Adjuvant with the Extract of Scutellaria baicalensis on a Solid Vehicle on the Improvement in the State of Health and Resistance to Disease of Piglets Subject to a Stress
The piglets were 42 days old at the beginning of the test. Three groups were formed: a control group, a group receiving the same feed supplemented with 100 ppm of an antibiotic (tylosine) and finally the last group receiving a feed supplemented with 100 ppm of an extract of Scutellaria baicalensis, that is 30 ppm of baicalin per kg of feed. The diseases were noted as were the curative treatments used in each groups.

SMILES: CN(C)[C@@H]1C(O)=C(C(N)=O)C(=O)[C@@]2(O)C(O)=C3C(=O)c4c(O)cccc4[C@@](C)(O)[C@H]3[C@H](O)[C@@H]12 [OTC, oxytetracycline]
- egg-laying rate ([1]; 2 weeks including the thermal stress phase and the following week, control 85.2%): 88.5%
- daily feed intake per hen ([1]; thermal stress phase (35° C. for 5 days), OTC 400 ppm in feed, SCU 6 mg baicalin/kg of feed, control 50.9 g): 53.5 g

SMILES: CC[C@H]1OC(=O)C[C@@H](O)[C@H](C)[C@@H](O[C@@H]2O[C@H](C)[C@@H](O[C@H]3C[C@@](C)(O)[C@@H](O)[C@H](C)O3)[C@H](N(C)C)[C@H]2O)[C@@H](CC=O)C[C@@H](C)C(=O)/C=C/C(C)=C/[C@@H]1CO[C@@H]1O[C@H](C)[C@@H](O)[C@@H](OC)[C@H]1OC [Tylosine, tylosine]
- % Pigs not treated [2]: 48%
- % Pigs treated [2]: 52%
- % treatments [2]: 56.0%
- Mortality + elimination (%) [2]: 4.0%
- Number of treatments: Cough [2]: 7
- Number of treatments: Lame [2]: 0
- Number of treatments: Lean [2]: 2
- Number of treatments: Nervous symptoms [2]: 1
- Number of treatments: Watery diarrhoea [2]: 4
- Pigs treated per cause: Cough [2]: 7
- Pigs treated per cause: Lame [2]: 0
- Pigs treated per cause: Lean [2]: 2
- Pigs treated per cause: Nervous symptoms [2]: 1
- Pigs treated per cause: Watery diarrhoea [2]: 4
- Number of pigs treated ([2]; P (Chi2) <0.05): 13
- Number of treatments ([2]; curative treatments, P (Chi2) <0.05): 14
- Withdrawn from test ([2]; number of pigs): 1
- Number of deaths ([2]; piglets 42 days old at start): 0
